Test results taken from patent US20200245616A1, “A Disinfectant Composition with Extended Antimicrobial Effects” (Siamons International Inc., priority 2017, published 2020).

Assays:
Format in all cases: cell-based
[1] = tested on: Penicillium variable ATCC 32333; assay: AOAC Official Method 961.02 Germicidal Spray Method, fungal conidia on glass carriers; conditions: 10 min contact
Source text: (§1) In this method, a series of glass slides (“carriers”) were inoculated with a representative test organism and the carriers were dried under ambient conditions. The dried organisms on the surface of the carrier were then sequentially treated with the composition of the present disclosure in the form of a spray product and were exposed for a pre-determined exposure time. After exposure, the carriers were sequentially transferred to a liquid subculture medium specifically selected to neutralize the composition of the present disclosure and to recover any surviving test organism. The carriers were incubated and visually examined for the presence or absence of growth. […] Required organisms for a disinfection claim include but are not limited to Staphylococcus aureus, Salmonella choleraesuis and Pseudomonas aeruginosa.
(§2) The conidiospore suspension was macerated in a tissue grinder. The suspension was filtered through sterile cotton to remove the hyphae and hyphal fragments.
(§3) Vortex-mixed the inoculum periodically during inoculation of the carriers. • Immediately spread the inoculum uniformly over the majority of the carrier surface using a sterile loop. […] High volume screening studies were conducted in some cases where only 4 organism-inoculated carriers were treated at specified concentrations of CTAB. Once all of the carriers had been inoculated, the carriers were placed in an incubator at 37° C. for 40 minutes until completely dry.
(§4) • After drying, each carrier was sprayed with the respective disinfection formulae 10 times in 10 seconds at a distance of 30 cm. • Timed the treatment interval. Ten (10) minutes after each carrier had been exposed to the disinfectant, the excess liquid was removed and the carriers were transferred in a sequentially timed fashion into the culture tubes containing 20 ml neutralization broth (Letheen Broth with 0.07% Lecithin /0.5% Tween 80) to neutralize the disinfectant. • After the carriers were deposited in the respective culture tubes, the tubes were recapped and the cultures were thoroughly resuspended. • Incubated all neutralization tubes at 28 ±1° C. for 14 days. • After 14 days, the cultures within the tubes were examined for growth. The percentage of the treated carriers showing growth was recorded.

[2] = tested on: Aspergillus niger ATCC 6275; assay: as above; conditions: 10 min contact
Source text: as §1, §2, §3, §4

[3] = tested on: Trichophyton mentagrophytes ATCC 9533; assay: as above; conditions: 10 min contact
Source text: as §1, §2, §3, §4

[4] = tested on: select bacteria and fungal organisms; assay: Germicidal spray disinfection, summary over the tested organisms; conditions: 0.01% QAH in CMC; 10-minute contact time
Procedure: (§5) All experiments were conducted according to the protocol outlined in AOAC Official Method 961.02 (Germicidal Spray Method), which is a carrier-based method used to evaluate disinfection efficacy of aerosol/pump-based spray products and liquid products for registration with regulatory agencies such as the U.S. EPA and Health Canada.
It was expected that if the CTAB was replaced by QAH's of similar structure that the disinfection of selected bacteria and fungal organisms would be similarly achieved. […] In the case of bacteria testing, the experimental procedure was as outlined in Example 1 for disinfection of bacterial cultures. In the case of fungal organisms, the experimental procedure was as outlined in Example 1 for the preparation of fungal cultures.

[5] = tested on: Pseudomonas aeruginosa ATCC 15442; assay: AOAC Official Method 961.02 Germicidal Spray Method, bacteria on glass carriers; conditions: for Pseudomonas aeruginosa Growth Rate: 10 min contact
Source text: as §1
(§6) Method Adapted to the Preparation of Bacteria Cultures from −80° C. Freshly Recovered Stock. […] Added 10 μL of the thawed stock to a tube containing 10 mL synthetic broth and then vortexed to mix. Discarded the rest of cryovial stock. • Incubated the tube at 36 ±1° C. for 24 hours (h). Briefly vortexed the 24 h culture prior to transfer. For this final subculture step, inoculated two 20×150 mm tubes containing 10 mL synthetic broth with […] of the 24 h synthetic broth culture. • Incubated 48 h at 36±1° C. Using a Vortex-style mixer, mixed synthetic broth test cultures 3-4 seconds and let stand 10 minutes at room temperature before continuing. Removed the upper portion of each culture, leaving behind any debris or clumps, and transferred to a sterile tube. Titrated the culture by plating on synthetic agar plates, and diluted to 5×10^8 Colony Forming Units (CFU) per mL.
(§7) High volume screening studies were conducted in some cases where only 4 organism-inoculated carriers were treated at specified concentrations of CTAB. Vortex-mixed the inoculum periodically during inoculation of the carriers. • Immediately spread the inoculum uniformly over the majority of the carrier surface using a sterile loop. […] Covered dish immediately and repeated operation until 64 carriers had been prepared for the test. Once all of the carriers had been inoculated, placed in incubator at 37° C. for 40 minutes until dry.
(§8) • After the test organisms were dried on the surface of the carrier, each carrier was sprayed with the respective disinfection formulae 10 times in 10 seconds at a distance of 30 cm. • Treatment interval was timed. Ten (10) minutes after each carrier had been sprayed by the disinfectant, the excess liquid was removed and the carriers were transferred in a sequentially timed fashion into the culture tubes containing 20 ml neutralizer (Letheen Broth with 0.07% Lecithin/0.5% Tween 80/0.1% Sodium Thiosulfate) to neutralize the disinfectant. […] The percentage of the treated carriers showing growth after 48 hours was recorded.

[6] = tested on: Staphylococcus aureus ATCC 6538; assay: as above; conditions: 10 min contact
Source text: as §1, §6, §7, §8

[7] = tested on: Salmonella choleraesuis ATCC 10708; assay: as above; conditions: 10 min contact
Procedure: as §5, §1
Method Adapted to the Preparation of Bacteria Cultures from −80° C. Freshly Recovered Stock. […]

## CCCCCCCCCCCCCCCC[N+](C)(C)Cc1ccccc1.[Cl-] [BDAC, Benzyl-dimethylhexadecylammonium chloride]
[1]; CMC + QAH, QAH 0.010%
  Penicillium variable Growth Rate: 0%
[1]; CMC + QAH, QAH 0.100%
  Penicillium variable Growth Rate: 0%
[1]; CMC + QAH, QAH 1.000%
  Penicillium variable Growth Rate: 0%
[1]; Water + QAH, QAH 0.010%
  Penicillium variable Growth Rate: 0%
[1]; Water + QAH, QAH 0.100%
  Penicillium variable Growth Rate: 0%
[1]; Water + QAH, QAH 1.000%
  Penicillium variable Growth Rate: 0%
[2]; CMC + QAH, QAH 0.010%
  Aspergillus niger Growth Rate: 100%
[2]; CMC + QAH, QAH 0.100%
  Aspergillus niger Growth Rate: 25%
[2]; CMC + QAH, QAH 1.000%
  Aspergillus niger Growth Rate: 0%
[2]; Water + QAH, QAH 0.010%
  Aspergillus niger Growth Rate: 100%
[2]; Water + QAH, QAH 0.100%
  Aspergillus niger Growth Rate: 75%
[2]; Water + QAH, QAH 1.000%
  Aspergillus niger Growth Rate: 0%
[3]; CMC + QAH, QAH 0.010%
  Trichophyton mentagrophytes Growth Rate: 0%
[3]; CMC + QAH, QAH 0.100%
  Trichophyton mentagrophytes Growth Rate: 0%
[3]; CMC + QAH, QAH 1.000%
  Trichophyton mentagrophytes Growth Rate: 0%
[3]; Water + QAH, QAH 0.010%
  Trichophyton mentagrophytes Growth Rate: 0%
[3]; Water + QAH, QAH 0.100%
  Trichophyton mentagrophytes Growth Rate: 0%
[3]; Water + QAH, QAH 1.000%
  Trichophyton mentagrophytes Growth Rate: 0%
[4]
  effectiveness against the target organisms: remarkable effectiveness
[5]; CMC + QAH, QAH 0.010%
  Pseudomonas aeruginosa Growth Rate: 0%
[5]; CMC + QAH, QAH 0.100%
  Pseudomonas aeruginosa Growth Rate: 0%
[5]; CMC + QAH, QAH 1.000%
  Pseudomonas aeruginosa Growth Rate: 0%
[5]; Water + QAH, QAH 0.010%
  Pseudomonas aeruginosa Growth Rate: 100%
[5]; Water + QAH, QAH 0.100%
  Pseudomonas aeruginosa Growth Rate: 25%
[5]; Water + QAH, QAH 1.000%
  Pseudomonas aeruginosa Growth Rate: 25%
[6]; CMC + QAH, QAH 0.010%
  Staphylococcus aureus Growth Rate: 0%
[6]; CMC + QAH, QAH 0.100%
  Staphylococcus aureus Growth Rate: 0%
[6]; CMC + QAH, QAH 1.000%
  Staphylococcus aureus Growth Rate: 0%
[6]; Water + QAH, QAH 0.010%
  Staphylococcus aureus Growth Rate: 100%
[6]; Water + QAH, QAH 0.100%
  Staphylococcus aureus Growth Rate: 0%
[6]; Water + QAH, QAH 1.000%
  Staphylococcus aureus Growth Rate: 0%

## CC(C)(C)CC(C)(C)c1ccc(OCCOCC[N+](C)(C)Cc2ccccc2)cc1 [BZT, Benzethonium chloride]
[1]; CMC + QAH, QAH 0.010%
  Penicillium variable Growth Rate: 0%
[1]; CMC + QAH, QAH 0.100%
  Penicillium variable Growth Rate: 0%
[1]; CMC + QAH, QAH 1.000%
  Penicillium variable Growth Rate: 0%
[1]; Water + QAH, QAH 0.010%
  Penicillium variable Growth Rate: 0%
[1]; Water + QAH, QAH 0.100%
  Penicillium variable Growth Rate: 0%
[1]; Water + QAH, QAH 1.000%
  Penicillium variable Growth Rate: 0%
[2]; CMC + QAH, QAH 0.010%
  Aspergillus niger Growth Rate: 50%
[2]; CMC + QAH, QAH 0.100%
  Aspergillus niger Growth Rate: 0%
[2]; CMC + QAH, QAH 1.000%
  Aspergillus niger Growth Rate: 0%
[3]; CMC + QAH, QAH 0.010%
  Trichophyton mentagrophytes Growth Rate: 0%
[3]; CMC + QAH, QAH 0.100%
  Trichophyton mentagrophytes Growth Rate: 0%
[3]; CMC + QAH, QAH 1.000%
  Trichophyton mentagrophytes Growth Rate: 0%
[3]; Water + QAH, QAH 0.010%
  Trichophyton mentagrophytes Growth Rate: 0%
[3]; Water + QAH, QAH 0.100%
  Trichophyton mentagrophytes Growth Rate: 0%
[3]; Water + QAH, QAH 1.000%
  Trichophyton mentagrophytes Growth Rate: 0%
[4]
  effectiveness against the target organisms: remarkable effectiveness
[5]; CMC + QAH, QAH 0.010%
  Pseudomonas aeruginosa Growth Rate: 0%
[5]; CMC + QAH, QAH 0.100%
  Pseudomonas aeruginosa Growth Rate: 0%
[5]; CMC + QAH, QAH 1.000%
  Pseudomonas aeruginosa Growth Rate: 0%
[5]; Water + QAH, QAH 0.010%
  Pseudomonas aeruginosa Growth Rate: 100%
[5]; Water + QAH, QAH 0.100%
  Pseudomonas aeruginosa Growth Rate: 100%
[5]; Water + QAH, QAH 1.000%
  Pseudomonas aeruginosa Growth Rate: 100%
[6]; CMC + QAH, QAH 0.010%
  Staphylococcus aureus Growth Rate: 0%
[6]; CMC + QAH, QAH 0.100%
  Staphylococcus aureus Growth Rate: 0%
[6]; CMC + QAH, QAH 1.000%
  Staphylococcus aureus Growth Rate: 100%
[6]; Water + QAH, QAH 0.010%
  Staphylococcus aureus Growth Rate: 100%
[6]; Water + QAH, QAH 0.100%
  Staphylococcus aureus Growth Rate: 25%
[6]; Water + QAH, QAH 1.000%
  Staphylococcus aureus Growth Rate: 0%

## CCCCCCCCCCCCCCCC[N+](C)(C)C.[Br-] [CTAB, cetyltrimethylammonium bromide]
[1]; CTAB 0.0010% in water (no CMC)
  Penicillium variable Growth Rate: 100%
[1]; CTAB 0.0100% in water (no CMC)
  Penicillium variable Growth Rate: 0%
[1]; CTAB 0.0500% in water (no CMC)
  Penicillium variable Growth Rate: 0%
[1]; CTAB 0.1000% in water (no CMC)
  Penicillium variable Growth Rate: 0%
[2]; CTAB 0.0010% in water (no CMC)
  Aspergillus niger Growth Rate: 100%
[2]; CTAB 0.0100% in water (no CMC)
  Aspergillus niger Growth Rate: 100%
[2]; CTAB 0.0500% in water (no CMC)
  Aspergillus niger Growth Rate: 100%
[2]; CTAB 0.1000% in water (no CMC)
  Aspergillus niger Growth Rate: 100%
[3]; CTAB 0.0010% in water (no CMC)
  Trichophyton mentagrophytes Growth Rate: 0%
[3]; CTAB 0.0100% in water (no CMC)
  Trichophyton mentagrophytes Growth Rate: 0%
[3]; CTAB 0.0500% in water (no CMC)
  Trichophyton mentagrophytes Growth Rate: 0%
[7]; CTAB 0.0100% in water (no CMC)
  Salmonella choleraesuis Growth Rate: 100%
[7]; CTAB 0.1000% in water (no CMC)
  Salmonella choleraesuis Growth Rate: 0%
[5]; CTAB 0.0010% in water (no CMC)
  Pseudomonas aeruginosa Growth Rate: 100%
[5]; CTAB 0.0100% in water (no CMC)
  Pseudomonas aeruginosa Growth Rate: 100%
[5]; CTAB 0.0500% in water (no CMC)
  Pseudomonas aeruginosa Growth Rate: 100%
[5]; CTAB on its own in water, 0.05%
  efficacy against Pseudomonas: ineffective
[6]; CTAB 0.0010% in water (no CMC)
  Staphylococcus aureus Growth Rate: 100%
[6]; CTAB 0.0100% in water (no CMC)
  Staphylococcus aureus Growth Rate: 100%
[6]; CTAB 0.0500% in water (no CMC)
  Staphylococcus aureus Growth Rate: 40%
[6]; CTAB 0.1000% in water (no CMC)
  Staphylococcus aureus Growth Rate: 40%
